Drawing on ChEMBL document CHEMBL5257097, “An Isomer of Galidesivir That Potently Inhibits Influenza Viruses and Members of the Bunyavirales Order” (ACS Med Chem Lett, 2023), this text covers EC50, CC50 and selectivity ratio for two compounds.

The structures appear in SMILES notation.

One data set relates to Ebolavirus. Put plainly: Antiviral activity against Ebola virus infected in human HeLa cells assessed as reduction in viral cytopathic effect. The class given is functional, organism-based. To be noted: Orthoebolavirus. A general note: Protection from cytopathic effect is a common read-out in antiviral testing.
Data set [1] can be described thus: Cytotoxicity against dog MDCK cells infected with Influenza A virus H3N2 assessed as reduction in cell viability by visual analysis. Format: toxicity, cell-based, Canis lupus familiaris.
Data set [2] in a line: Selectivity index, ratio of CC50 for cytotoxicity against dog MDCK cells infected with Influenza A virus H1N1 assessed as reduction in cell viability by neutral red dye based analysis to EC50 for antiviral activity against Influenza A virus H1N1 infected in dog MDCK cells assessed as inhibition of viral replication by neutral red dye based analysis. Format: toxicity. To be noted: read-out: Ratio CC50/EC50.

Data set [3] is described as follows: Selectivity index, ratio of CC50 for cytotoxicity against dog MDCK cells infected with Influenza A virus H3N2 assessed as reduction in cell viability by visual analysis to EC50 for antiviral activity against Influenza A virus H3N2 infected in dog MDCK cells assessed as inhibition of viral replication by visual analysis. Format: toxicity, cell-based. To be noted: read-out: Ratio CC50/EC50.

Data set [4] can be described thus: Selectivity index, ratio of CC50 for cytotoxicity against African green monkey Vero 76 cells infected with Punta Toro virus assessed as reduction in cell viability by visual analysis to EC50 for antiviral activity against Punta Toro virus infected in African green monkey Vero 76 cells assessed as reduction in viral replication by visual analysis. Format: toxicity, cell-based. Conditions: read-out: Ratio CC50/EC50.

In the case of `Nc1ncnc2c([C@@H]3N[C@H](CO)[C@@H](O)[C@H]3O)c[nH]c12` [GALIDESIVIR], the EC50 in the data set on Ebolavirus was 3 µM.

`Nc1ncnn2c([C@@H]3N[C@H](CO)[C@@H](O)[C@H]3O)ccc12`: the CC50 in data set [1] stood at 12 µM. For the same compound, the values for the selectivity ratio in data set [2], in data set [3] and in data set [4] were 44, 38 and 41, respectively.

The term EC50 denotes the concentration giving half of the maximal effect. For orientation: CC50 means the concentration that lowers cell viability or growth by half.
